Results on one molecule are retold here after US20160213635A1, “COMPOSITIONS USEFUL IN THE PREVENTION OR TREATMENT OF SKIN CANCER” (GIULIANI S.P.A., priority 2013, published 2016).

Series [1] deals with primary cultures of human keratinocytes, NHKs. Kind of series: Cell viability after treatment with G01. The format is cell-based. To be noted: eight different concentrations, 48±2 h, three NHKs cultures. How it is done: The study is performed on primary cultures of human keratinocytes, NHKs. The cells (three different cultures of keratinocytesNHKs) were plated in the specific culture medium and maintained in culture for 24±2 h to allow adhesion to the plate. The cells were treated with eight different concentrations of the compound of the invention […] under evaluation, diluted in the culture medium, for 48±2 h. The values of cell viability for each concentration tested, resulting from the spectrophotometric reading, were compared with the value obtained from the control.

For series [2] the test system is unchanged. Kind of series: Cell viability (incorporation of NR) after pre-treatment with G01 and subsequent UV irradiation. The format is cell-based. To be noted: pre-treatment 24±2 h; UVA 10 J/cm^2, UVB 25 mJ/cm^2; particularly 48 h after irradiation; particularly significant at 90 μM. How it is done:
The cells were plated in the specific culture medium and maintained in culture for 24±2 h to allow adhesion to the plate. The cells were treated for 24±2 h with the concentrations of the compound G01 under evaluation, selected based on the previous results. Subsequently, the cells in the plates identified as +UVA and +UVB were respectively exposed, in the irradiation medium, to doses of UVA of 10 J/cm^2 and UVB of 25 mJ/cm^2, while the control plate was maintained in the dark and at room temperature for a period of time equal to the irradiation time. The irradiation medium was then replaced with the culture medium. The cell viability was measured (incorporation of NR) 24±2 h and 48±2 h after the irradiation, following examination of the morphology of the cells under a microscope, in the absence and the presence of treatment with G01 and/or UVA/UVB irradiation. The cell viability values for each condition tested were compared with the value obtained from the control and plotted on a graph to highlight any differences between the various experimental conditions.

The test system of series [3] is NHKs cells. Kind of series: Flow cytometric (annexin V) assessment of UV induced apoptosis after pre-treatment with G01. The format is cell-based, human. To be noted: pre-treatment 90 μM 24±2 h; UVA 25 J/cm^2, UVB 80 mJ/cm^2; 24 h. As for the experimental part: The NHKs cells were plated in the specific culture medium and maintained in culture for 24±2 h to allow adhesion to the plate. Each experimental condition was plated in duplicate. The cells were treated for 24±2 h with G01, in a concentration of 90 μM. Subsequently, the plates identified as +UVA, +G01/UVA, +UVB, and +G01/UVB were respectively exposed, in the irradiation medium, to doses of UVA of 25 J/cm^2 and UVB of 80 mJ/cm^2, while the control plates (Ctr) and those treated only with the compound under examination (G01) were maintained in the dark and at room temperature for a period of time equal to the irradiation time. The irradiation medium was then replaced with the culture medium. Based on the preliminary results obtained on a broader time range, a post-treatment time of 24 h was selected, after which the plates were processed according to the procedure given in the user manual of the specific kit for annexin V flow cytometric analysis (Annexin V), a typical assay to detect the early stages of apoptosis. The positivity for annexin V in each condition tested (treatment with G01 and/or UVA/UVB irradiation) was compared with the positivity in the control cells.
(In flow cytometry, cells or beads pass a laser one at a time.)

For series [4], the system named is NHKs cells. Kind of series: Western Blot assessment (non-cleaved caspase 3) of UV induced apoptosis after pre-treatment with G01. To be noted: pre-treatment 90 μM 24±2 h; UVA 25 J/cm^2, UVB 80 mJ/cm^2; 24 h. The format is cell-based, human. As for the experimental part:
The NHKs cells were plated in the specific culture medium and maintained in culture for 24±2 h to allow adhesion to the plate. Each experimental condition was plated in duplicate. The cells were treated for 24±2 h with the compound G01, in a concentration of 90 μM. Subsequently, the cells identified as +UVA, +G01/UVA, +UVB, and +G01/UVB were respectively exposed, in the irradiation medium, to doses of UVA of 25 J/cm^2 and UVB of 80 mJ/cm^2, while the control plates and those treated only with G01 were maintained in the dark and at room temperature for a period of time equal to the irradiation time. The irradiation medium was then replaced with the culture medium. Based on the preliminary results obtained on a broader time range, a post-treatment time of 24 h was selected, after which the plates were processed for Western Blot protein determination. The protein expression of non-cleaved caspase 3 in each condition tested (treatment with G01 and/or UVA/UVB irradiation) was compared with the expression in the control cells (Ctr).

Series [5] concerns NHKs cells. Kind of series: Western Blot assessment (non-cleaved caspase 3) of apoptosis induced by UV irradiation and subsequent treatment with G01. To be noted: post-treatment 90 μM; UVA 25 J/cm^2, UVB 80 mJ/cm^2; 24 h. The format is cell-based, human. As for the experimental part: The NHKs cells were plated in the specific culture medium and maintained in culture for 24±2 h to allow adhesion to the plate. Subsequently, the plates identified as +UVA, +G01/UVA, +UVB, and +G01/UVB were respectively exposed, in the irradiation medium, to doses of UVA of 25 J/cm^2 and UVB of 80 mJ/cm^2, while the control plates (Ctr) and those treated only with the compound under examination (G01) were maintained in the dark and at room temperature for a period of time equal to the irradiation time. The irradiation medium was then replaced with the culture medium containing the compound G01, in a concentration of 90 μM. Based on the preliminary results obtained on a broader time range, a post-treatment time of 24 h was selected, after which the plates were processed for Western Blot protein determination. The protein expression of non-cleaved caspase 3 in each condition tested (treatment with the compound G01 under examination and/or UVA/UVB irradiation) was compared with the expression in the control cells.
(In general: A western blot detects proteins with antibodies after separation by electrophoresis.)

The test system of series [6] is NHKs cells. Kind of series: Immunofluorescence of phosphorylated histone γH2AX after UVA or UVB irradiation and subsequent treatment with G01. The format is cell-based, human. To be noted: post-treatment 90 μM; UVA 10 J/cm^2 or UVB 25 mJ/cm^2; 24 h; vs cells only irradiated. How it is done: The NHKs cells were plated in the specific culture medium and maintained in culture for 24±2 h to allow adhesion to the plate. Subsequently, the plates identified as +UVA, +UVA/G01 post, UVB, and +UVB/G01 post were respectively exposed, in irradiation medium, to doses of UVA of 10 J/cm^2 or UVB of 25 mJ/cm^2. The irradiation medium was then replaced with the culture medium containing the compound of the invention G01, in a concentration of 90 μM. Based on preliminary results obtained on a broader time range, a post-treatment time of 24 h was selected, after which the plates were processed for the immunofluorescence determination of the protein expression of the phosphorylated histone γH2AX, whose expression is associated to the amount of DNA damage (double strand breaks). The protein expression of the phosphorylated histone γH2AX after treatment with the compound of the invention G01, or only after irradiation with UVA/UVB, was compared with the expression in the control cells.

Turning to `C/C=C/C=C/C=C/C(=O)O` [G01, 2,4,6-trans-octatrienoic acid], in series [1], the “cell viability (cellular toxicity) vs control” value was “absence of cellular toxicity”. The “cell viability after UVA/UVB irradiation” value in series [2] is recorded as “general protective effect of cell viability”. Besides, the “apoptosis (positivity for annexin V) induced by UVA and UVB” value in the series on NHKs cells [3] is reported as “reduce the apoptosis”. Moreover, the “caspase 3 activation (protein expression of non-cleaved caspase 3)” value in the series on NHKs cells [4] and with NHKs cells [5] was “reduce caspase 3 activation” each time. Also, in the series with NHKs cells [6], the “fraction of phosphorylated histone γH2AX” value was “significant reduction”.
